Data from patent US12612409B2, “Pyrrolopyrimidines as CFTR potentiators” (Cystic Fibrosis Foundation, priority 2016, dated 2026).

How the values were obtained:
[1] = target: T1, CFTR in F508del/F508del primary CF hBE cells (Homo sapiens, UniProt P13569, DEL508-508); assay: Ussing chamber electrophysiology assay of CFTR potentiation in F508del/F508del CF bronchial epithelial cells (27° C.); format: cell-based
T1 construct: Primary cystic fibrosis human bronchial epithelial (CF hBE) cells were expanded and cultured; endogenous in cells; host or cells: primary CF human bronchial epithelial cells, genotype F508del/F508del
How it was run: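 Short-circuit current was recorded under zero-voltage clamp across primary CF bronchial epithelia cultured >30 days at air/liquid interface, bathed apically and basolaterally in HEPES-buffered saline. Sequential additions: amiloride (30 uM), forskolin (10 uM), compound at 4 increasing levels, CFTRinh-172 (20 uM). Responses normalised between DMSO (0%) and maximal positive-control potentiator (100%).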

[2] = target: T2, recombinant F508del V470 CFTR in Fischer rat thyroid (FRT) cells (Homo sapiens, UniProt P13569, DEL508-508); assay: FRT ion flux assay of F508del CFTR potentiation; format: cell-based; settings: FRT cells expressing F508del V470 CFTR, forskolin 20 uM, 27° C. pre-incubation
T2 construct: expressed in transfected cells
How it was run: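 Potentiation read as YFP quench ~21 s after iodide buffer addition, as second/initial fluorescence ratio normalised between DMSO (0%) and reference potentiator (100%).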

T1 sequence (P13569 with tags, fused parts or gaps DEL508-508): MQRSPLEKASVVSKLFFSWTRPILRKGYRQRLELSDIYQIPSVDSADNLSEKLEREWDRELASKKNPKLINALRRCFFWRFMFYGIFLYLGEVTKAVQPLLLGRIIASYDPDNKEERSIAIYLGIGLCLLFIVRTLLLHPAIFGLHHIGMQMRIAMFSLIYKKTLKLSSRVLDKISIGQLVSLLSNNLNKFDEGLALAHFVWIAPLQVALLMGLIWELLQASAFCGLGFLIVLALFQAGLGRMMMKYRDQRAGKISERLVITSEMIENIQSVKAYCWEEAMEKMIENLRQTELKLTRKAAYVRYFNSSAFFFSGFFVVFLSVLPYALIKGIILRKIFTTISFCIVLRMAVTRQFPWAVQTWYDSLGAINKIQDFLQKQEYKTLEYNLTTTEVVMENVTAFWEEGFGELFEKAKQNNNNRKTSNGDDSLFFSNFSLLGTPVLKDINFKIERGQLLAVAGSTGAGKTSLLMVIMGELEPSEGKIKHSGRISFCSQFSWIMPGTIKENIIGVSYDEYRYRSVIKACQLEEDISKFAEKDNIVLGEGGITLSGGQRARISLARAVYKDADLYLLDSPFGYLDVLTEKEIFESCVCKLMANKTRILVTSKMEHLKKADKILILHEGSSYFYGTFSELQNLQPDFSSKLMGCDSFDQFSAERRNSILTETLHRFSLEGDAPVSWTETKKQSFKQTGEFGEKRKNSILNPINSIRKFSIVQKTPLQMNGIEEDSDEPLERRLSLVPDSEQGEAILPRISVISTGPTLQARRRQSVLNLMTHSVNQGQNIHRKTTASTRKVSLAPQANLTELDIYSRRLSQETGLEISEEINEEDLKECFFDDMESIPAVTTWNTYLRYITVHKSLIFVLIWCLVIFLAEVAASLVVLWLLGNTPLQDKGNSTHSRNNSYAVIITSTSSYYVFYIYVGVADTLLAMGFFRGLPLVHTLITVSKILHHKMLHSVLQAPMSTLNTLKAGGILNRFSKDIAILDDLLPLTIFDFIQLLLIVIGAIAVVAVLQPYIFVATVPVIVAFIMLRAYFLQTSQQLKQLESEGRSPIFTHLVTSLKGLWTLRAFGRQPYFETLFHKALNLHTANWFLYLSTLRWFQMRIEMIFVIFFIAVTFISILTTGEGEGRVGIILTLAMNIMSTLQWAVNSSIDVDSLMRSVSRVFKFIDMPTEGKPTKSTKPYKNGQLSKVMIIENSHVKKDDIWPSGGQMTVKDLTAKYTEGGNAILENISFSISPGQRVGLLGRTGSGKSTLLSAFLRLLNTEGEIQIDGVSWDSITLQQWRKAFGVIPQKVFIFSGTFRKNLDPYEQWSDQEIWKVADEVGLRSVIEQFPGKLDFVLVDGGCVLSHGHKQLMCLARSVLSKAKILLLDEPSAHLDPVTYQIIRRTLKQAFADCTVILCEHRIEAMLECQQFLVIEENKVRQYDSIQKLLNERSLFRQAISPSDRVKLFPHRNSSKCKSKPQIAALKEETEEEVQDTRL
T2 sequence (P13569 with tags, fused parts or gaps DEL508-508): as above

EC50 [1] [nM]	EC50 [2] [nM]	Compound
93.2	37.3	CCC(c1cn(-c2ccccc2F)nn1)n1cc(-c2cnco2)c2c(N)ncnc21 (stereo not shown) [Example 225, 7-{1-[1-(2-Fluorophenyl)-1H-1,2,3-triazol-4-yl]propyl}-5-(1,3-oxazol-5-yl)-7H-pyrrolo[2,3-d]pyrimidin-4-amine]
3.46	15.3	CCC(c1cn(-c2ccccc2F)nn1)n1cc(-c2nccnc2OC)c2c(N)ncnc21 (single isomer, unassigned; enantiomer 2) [Example 136, (+) 7-{1-[1-(2-Fluorophenyl)-1H-1,2,3-triazol-4-yl]propyl}-5-(3-methoxypyrazin-2-yl)-7H-pyrrolo[2,3-d]pyrimidin-4-amine, enantiomer 2]
327	630	CCC(c1cn(-c2ccc(F)c(F)c2)nn1)n1cc(-c2cnc(C(F)(F)F)nc2)c2c(N)ncnc21 (single isomer, unassigned; enantiomer 2) [Example 154, 7-{1-[1-(3,4-Difluorophenyl)-1H-1,2,3-triazol-4-yl]propyl}-5-[2-(trifluoromethyl)pyrimidin-5-yl]-7H-pyrrolo[2,3-d]pyrimidin-4-amine, enantiomer 2]

The remaining lines, values behind:

Compound	EC50 [1] [nM]	EC50 [2] [nM]
COc1cc(C#N)ccc1-c1cn(Cc2cn(-c3ccccc3F)nn2)c2ncnc(N)c12 [Example 79, 4-(4-Amino-7-{[1-(2-fluorophenyl)-1H-1,2,3-triazol-4-yl]methyl}-7H-pyrrolo[2,3-d]pyrimidin-5-yl)-3-methoxybenzonitrile]	150	75.2
CCC(c1cnn(-c2ccc(F)cc2F)c1)n1c(C#N)c(-c2cnc(C(F)(F)F)nc2)c2c(N)ncnc21 (single isomer, unassigned) [Example 21, 4-Amino-7-{1-[1-(2,4-difluorophenyl)-1H-pyrazol-4-yl]propyl}-5-[2-(trifluoromethyl)pyrimidin-5-yl]-7H-pyrrolo[2,3-d]pyrimidine-6-carbonitrile]	0.45	0.87
CCC(c1cn(-c2ccccc2F)nn1)n1cc(-c2cnc(C(F)(F)F)nc2)c2c(N)ncnc21 (stereo not shown) [Example 224, 7-{1-[1-(2-Fluorophenyl)-1H-1,2,3-triazol-4-yl]propyl}-5-[2-(trifluoromethyl)pyrimidin-5-yl]-7H-pyrrolo[2,3-d] pyrimidin-4-amine]	19	9.04
COc1cnc(-c2cn(C(C)c3cc(-c4ccccc4F)no3)c3ncnc(N)c23)cn1 (stereo not shown) [Example 191, 7-{1-[3-(2-Fluorophenyl)-1,2-oxazol-5-yl]ethyl}-5-(5-methoxypyrazin-2-yl)-7H-pyrrolo[2,3-d]pyrimidin-4-amine]	103	918
COc1ncccc1-c1cn(Cc2cn(-c3ccccc3F)nn2)c2ncnc(N)c12 [Example 210, 7-{[1-(2-Fluorophenyl)-1H-1,2,3-triazol-4-yl]methyl}-5-(2-methoxy-pyridin-3-yl)-7H-pyrrolo[2,3-d]pyrimidin-4-amine]	158	123
N#Cc1c(-c2ccc(Cl)cc2)c2c(N)ncnc2n1Cc1cn(-c2ccccc2F)nn1 [Example 26, 4-Amino-5-(4-chlorophenyl)-7-{[1-(2-fluorophenyl)-1H-1,2,3-triazol-4-yl]methyl}-7H-pyrrolo[2,3-d]pyrimidine-6-carbonitrile]	35.7	130
CCC(c1cn(-c2ccc(F)cc2F)nn1)n1c(C#N)c(-c2cnc(C(F)(F)F)nc2)c2c(N)ncnc21 (single isomer, unassigned) [Example 17, 4-Amino-7-{1-[1-(2,4-difluorophenyl)-1H-1,2,3-triazol-4-yl]propyl}-5-[2-(trifluoromethyl)pyrimidin-5-yl]-7H-pyrrolo[2,3-d] pyrimidin-6-carbonitrile]	49.5	45.3
CC(c1cn(-c2ccccc2F)nn1)n1cc(-c2ccc(OC(F)F)cc2)c2c(N)ncnc21 (stereo not shown) [Example 89, 5-[4-(Difluoromethoxy)phenyl]-7-{1-[1-(2-fluorophenyl)-1H-1,2,3-triazol-4-yl]ethyl}-7H-pyrrolo[2,3-d]pyrimidin-4-amine]	35.9	73.8
